From ChEMBL document CHEMBL1201862, “PubChem BioAssay data set” (2004)
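These data come from cells grown in 96-well plates and exposed to compound for 48 hours at five concentrations. At the GI50, growth is halved.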 Activity calls are given as the source filed them. Cut-off read from the data, not from the text of the source: active = GI50 up to about 1.1 µM and inactive = higher.

Columns and labels:
Assay in all cases: inhibition of tumour cell growth, NCI panel, 48 h
A498 = tested on: A498
A549 = tested on: A549
DU-145 = tested on: DU-145
HCC 2998 = tested on: HCC 2998
HCT-116 = tested on: HCT-116
IGROV-1 = tested on: IGROV-1
M14 = tested on: M14
MDA-MB-435 = tested on: MDA-MB-435
MOLT-4 = tested on: MOLT-4
NCI/ADR-RES = tested on: NCI/ADR-RES
OVCAR-5 = tested on: OVCAR-5
SF-539 = tested on: SF-539
SNB-19 = tested on: SNB-19
T47D = tested on: T47D
TK-10 = tested on: TK-10
U-251 = tested on: U-251
UACC-62 = tested on: UACC-62
HOP-92 = tested on: HOP-92

Row | SMILES | GI50 (A498) | GI50 (A549) | GI50 (DU-145) | GI50 (HCC 2998) | GI50 (HCT-116) | GI50 (IGROV-1) | GI50 (M14) | GI50 (MDA-MB-435) | GI50 (MOLT-4) | GI50 (NCI/ADR-RES) | GI50 (OVCAR-5) | GI50 (SF-539) | GI50 (SNB-19) | GI50 (T47D) | GI50 (TK-10) | GI50 (U-251) | GI50 (UACC-62) | GI50 (HOP-92)
1 | COc1ccc2c(c1)c1nn(CCN(C)C)c3ccc4c(=O)n(CCN(C)C)c(=O)n2c4c13 | 0.114 µM (active) | < 0.01 µM (active) | 0.0135 µM (active) | < 0.01 µM (active) | < 0.01 µM (active) | < 0.01 µM (active) | 0.105 µM (active) | < 0.019 µM (active) | < 0.01 µM (active) | 0.0148 µM (active) | < 0.0223 µM (active) | 0.169 µM (active) | 0.0224 µM (active) | 0.144 µM (active) | 0.0649 µM (active) | < 0.01 µM (active) | 0.116 µM (active) | –
2 | O=C(Nc1ccccc1)Nn1c(-c2cccs2)nc2ccc(I)cc2c1=O | – | 19.2 µM (inactive) | 24.3 µM (inactive) | 25.8 µM (inactive) | 31.4 µM (inactive) | 19.7 µM (inactive) | 35.9 µM (inactive) | 20.1 µM (inactive) | – | 30.6 µM (inactive) | 27.7 µM (inactive) | 33.7 µM (inactive) | 42.2 µM (inactive) | 3.33 µM (inactive) | 28.4 µM (inactive) | 23.9 µM (inactive) | 28.7 µM (inactive) | 6.3 µM (inactive)
3 | O=C1C[C@@H](Sc2ccccc2)C2(OCCO2)C2ON3CCCC[C@H]3[C@H]12 (stereo not given in full) | 30.5 µM (inactive) | 7.36 µM (inactive) | 12.1 µM (inactive) | – | 4.33 µM (inactive) | 5.48 µM (inactive) | 10.7 µM (inactive) | 11.7 µM (inactive) | 0.989 µM (active) | 5.78 µM (inactive) | 17.7 µM (inactive) | 1.94 µM (inactive) | 10.5 µM (inactive) | 16.2 µM (inactive) | 6.34 µM (inactive) | 4.73 µM (inactive) | 6.03 µM (inactive) | 7 µM (inactive)
4 | NC(=O)c1nnsc1N/N=C/c1ccc([N+](=O)[O-])cc1 | > 100 µM (inactive) | > 100 µM (inactive) | > 100 µM (inactive) | > 100 µM (inactive) | > 100 µM (inactive) | > 100 µM (inactive) | > 100 µM (inactive) | 76.9 µM (inactive) | > 100 µM (inactive) | > 100 µM (inactive) | > 100 µM (inactive) | > 100 µM (inactive) | > 100 µM (inactive) | > 100 µM (inactive) | – | > 100 µM (inactive) | > 100 µM (inactive) | –
5 | COC(=O)CSC(=S)Nc1nnc(NC(=S)SCOC(C)=O)n1C(=S)SCC(=O)OC | > 100 µM (inactive) | – | > 100 µM (inactive) | > 100 µM (inactive) | > 100 µM (inactive) | > 100 µM (inactive) | > 100 µM (inactive) | > 100 µM (inactive) | > 100 µM (inactive) | > 100 µM (inactive) | > 100 µM (inactive) | – | > 100 µM (inactive) | – | – | > 100 µM (inactive) | > 100 µM (inactive) | –
6 | Cc1cc(S(=O)(=O)n2ccnc2O)c(SCCCN(C)C)cc1Cl | > 100 µM (inactive) | > 100 µM (inactive) | > 100 µM (inactive) | > 100 µM (inactive) | > 100 µM (inactive) | > 100 µM (inactive) | > 100 µM (inactive) | > 100 µM (inactive) | > 100 µM (inactive) | > 100 µM (inactive) | > 100 µM (inactive) | > 100 µM (inactive) | > 100 µM (inactive) | > 100 µM (inactive) | > 100 µM (inactive) | > 100 µM (inactive) | > 100 µM (inactive) | –
7 | CC(=O)N1N=C(c2ccccc2Nc2ccccc2C2=NN(C(C)=O)C(c3ccccc3)O2)OC1c1ccccc1 (stereo not given) | – | 17.4 µM (inactive) | > 100 µM (inactive) | > 100 µM (inactive) | 32.5 µM (inactive) | > 100 µM (inactive) | 56.1 µM (inactive) | 14.7 µM (inactive) | 4.76 µM (inactive) | 55.6 µM (inactive) | > 100 µM (inactive) | – | > 100 µM (inactive) | > 100 µM (inactive) | > 100 µM (inactive) | 63.5 µM (inactive) | 35 µM (inactive) | 93.8 µM (inactive)
8 | NC1=NNC2(C(N)=N1)c1ccccc1-c1ccccc12 | – | > 10 µM (inactive) | > 10 µM (inactive) | > 10 µM (inactive) | > 10 µM (inactive) | > 10 µM (inactive) | > 10 µM (inactive) | > 10 µM (inactive) | > 10 µM (inactive) | > 10 µM (inactive) | – | > 10 µM (inactive) | > 10 µM (inactive) | > 10 µM (inactive) | > 10 µM (inactive) | – | > 10 µM (inactive) | > 10 µM (inactive)
9 | O=C(Nc1ccccc1)Oc1ccc(C(=S)Nc2ccc(Br)cc2)cc1 | 19.1 µM (inactive) | – | 31.5 µM (inactive) | 21.6 µM (inactive) | 17.3 µM (inactive) | 6.43 µM (inactive) | – | 16.9 µM (inactive) | 13.4 µM (inactive) | 15.3 µM (inactive) | 16.6 µM (inactive) | 18.6 µM (inactive) | – | 22.2 µM (inactive) | – | 19.5 µM (inactive) | 11 µM (inactive) | –
